Here are results for one compound from PMC11378298 (ACS Chemical Neuroscience, 2024).

Data set [1] can be described thus: Cytotoxicity in BV-2 cells (PrestoBlue). To be noted: mouse, BV-2 microglial cells. The protocol:
(§1) The compounds were tested at 5 concentrations (0.1, 1, 10, 50, and 100 μM).
Mouse microglial cells (BV-2) were a generous gift from Professor Bozena Kaminska-Kaczmarek of the Laboratory of Molecular Neurobiology, Neurobiology Center, Nencki Institute of Experimental Biology, Polish Academy of Sciences, Warsaw, Poland. Cells were cultured in Dulbecco’s modified Eagle’s Medium-high glucose (DMEM, Glutamax Thermo Fisher) supplemented with 10% heat-inactivated fetal bovine serum (Thermo Fisher), 100 IU/mL penicillin (Merck) and 100 μg/mL streptomycin (Merck). Cells were cultured in flasks (area 175 cm^2, Nunc), and incubated at 37 °C, 5% CO2. To evaluate the level of NO, IL-6, and TNF-α and the effectiveness of the compounds tested, BV-2 microglia cells were cultured in a 96-well culture plate (5 × 10^4 cells per well, Falcon). For the measurement of cell viability and cell membrane damage, cells were placed in a 96-well culture plate (2 × 10^4 cells per well, Falcon). Before the tests, cells were grown for 24 h in the incubator (37 °C, 5% CO2).
(§2) Cell viability was evaluated using the PrestoBlue reagent (ThermoFisher), according to the manufacturer’s procedures.[87] Following 24 h of incubation with the tested molecule, PrestoBlue reagent was added to a microplate well in an amount equal to one-tenth of the remaining medium volume. The resulting mixture was incubated for 15 min at 37 °C, and the fluorescence intensity (EX 530 nm; EM 580 nm) was measured in the plate reader POLARstar Omega, (BMG Labtech).

A short description of data set [2]: Cytotoxicity in HT-22 cells (PrestoBlue). Particulars: mouse, HT-22 hippocampal neuronal cells. How it is done:
as §1
(§3) Mouse Hippocampal Neuronal Cell Line (HT-22) was a generous gift from Dr Bartosz Pomierny of the Department of Biochemical Toxicology, Jagiellonian University Medical College, Krakow, Poland. Cells were cultured in Dulbecco’s modified Eagle’s Medium—high glucose (DMEM, Glutamax Thermo Fisher) supplemented with 10% heat-inactivated fetal bovine serum (Thermo Fisher), 100 IU/mL penicillin (Merck) and 100 μg/mL streptomycin (Merck). Cells were cultured in flasks (area 175 cm^2, Nunc), and incubated at 37 °C, 5% CO2. For the measurement of cell viability and neuroprotective effect against okadaic acid cells were placed in a 96-well culture plate (2 × 10^4 cells per well, Falcon). Before the tests, cells were grown for 24 h in the incubator (37 °C, 5% CO2).
as §2

For the next data set, the system named is HT-22 cells. As to the kind of experiment: Cytotoxicity in HT-22 cells (PrestoBlue). Particulars: whole range of concentrations 0.1–100 μM. The protocol:
as §1, §3, §2

The target in a further data set is GSK-3β (Homo sapiens, UniProt P49841). The data set is described as follows: biochemical. How it is done: We evaluated the pharmacological properties of the compounds in vitro against GSK-3β using the GSK-3β Kinase Enzyme System followed by ADP-Glo bioluminescent assay.[50] The principle of the assay is to determine the amount of ADP formed from ATP in the kinase reaction. […] Additionally, compounds 11 and 36 in complex with GSK-3β were analyzed by the proteins’ melting temperature determination using Thermal Shift Assay (see Figure S1 in the SI).
GSK-3β, sequence (P49841 whole entry): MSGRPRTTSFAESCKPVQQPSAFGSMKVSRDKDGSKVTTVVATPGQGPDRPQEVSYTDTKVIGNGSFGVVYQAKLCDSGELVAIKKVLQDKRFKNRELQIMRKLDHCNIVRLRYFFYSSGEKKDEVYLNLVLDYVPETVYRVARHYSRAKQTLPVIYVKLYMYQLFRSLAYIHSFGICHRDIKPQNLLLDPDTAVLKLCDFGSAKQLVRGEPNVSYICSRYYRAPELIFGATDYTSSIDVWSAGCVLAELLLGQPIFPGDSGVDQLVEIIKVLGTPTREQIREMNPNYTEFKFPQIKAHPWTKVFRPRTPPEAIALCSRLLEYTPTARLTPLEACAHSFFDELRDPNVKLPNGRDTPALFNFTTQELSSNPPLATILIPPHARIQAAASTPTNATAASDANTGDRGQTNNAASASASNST
The inhibitory activities of the tested compounds against the GSK-3β human recombinant kinase were measured using Promega’s GSK-3β Kinase Enzyme System (Promega; Madison, WI, USA), according to the provided manufacturer’s instruction, using the low-volume white polystyrene 384-well plates. The ADP-Glo Assay (Promega; Madison, WI, USA) was used for bioluminescent detection of the kinase activity. Tested compounds were prepared as 1 mM stock solutions in DMSO and diluted with the Kinase Assay Buffer before use (40 mM Tris, pH 7.5, enriched with 50 μM dithiothreitol; DTT) to obtain the desired compounds’ concentrations. The kinase enzyme, GSK-3β-substrate (derived from human muscle glycogen synthase 1), and ATP were also diluted in the assay buffer before use. At first, GSK-3β (10 ng per well) was incubated with the tested sample (10 μM in well) for 5 min. In the case of blank wells, the DMSO solution (1% in well) was used instead of the target samples’ solutions. After the incubation period, ATP (25 μM in well) and GSK-3β-substrate (0.2 μg/μL in well) were added to start the enzymatic reaction. The reaction mixture was kept at room temperature for 1 h, followed by the addition of the ADP-Glo reagent, to terminate the kinase reaction and deplete any remaining ATP. After the following 40 min—a second reagent (Kinase Detection Reagent) was applied to convert the obtained ADP to ATP and to generate light from the newly synthesized ATP using a luciferase/luciferin reaction. The mixture was kept for another 30 min at room temperature, then the luminescence was measured. Based on equation 100 – (S/B) × 100 (where S and B were the respective enzyme activities with and without the tested sample, respectively) the percent of inhibition of GSK-3β for each compound was calculated. […] Calculations were made using nonlinear regression (GraphPad Prism 9; GraphPad Software, San Diego, CA, USA) by plotting the residual enzyme activities against the applied inhibitor concentration. […] Each data point was collected in triplicate.

The subject of the next data set is BV-2 cell line. As to the kind of experiment: NO release in LPS-treated BV-2 cells (DAN fluorometric assay). The class given is cell-based, mouse. Particulars: compound 0.1, 1, 10 μM; LPS 100 ng/mL. The protocol: Cell viability was determined by Presto Blue assay after 24 h. (B) Effect of compounds 11, 34, and 36 (0.1, 1, 10 μM) on NO-release (%) in LPS-treated (100 ng/mL) BV-2 cell line. NO-release was measured using a fluorometric assay with 2,3-diaminonaphthalene (DAN). (C, D) Effects of compounds 11 and 36 (0.1, 1, 10 μM) on IL-6 and TNF-α release in LPS-treated (100 ng/mL) BV-2 cell line. The IL-6 and TNF-α levels were measured using LANCE Ultra TR-FRET Detection Kit (PerkinElmer). Statistical analysis was performed using GraphPad Prism 9.0.0. All values are expressed as mean with SD. Differences among groups were evaluated by one-way ANOVA followed by posthoc analysis (Dunnett’s multiple comparison tests) vs. control group (LPS on BV-2 cells and okadaic acid on HT-22 cells) and were considered statistically significant if p < 0.05 (*p < 0.05, **p < 0.01, ***p < 0.001, and ****p < 0.0001).
An important role in the pathogenesis of AD has been attributed to neuroinflammation resulting from the activation of astrocytes and microglial cells.[55] These processes lead to increased production of proinflammatory cytokines such as TNF-α or IL-6 that activate processes, e.g., tau hyperphosphorylation, causing injury and cell death.[56] A standard model of neuroinflammation is based on lipopolysaccharide-stimulated BV-2 microglial cells. In this study, we used this model to evaluate the anti-inflammatory properties of compounds 11, 34, and 36.[57] Our evaluation focused on monitoring the levels of key inflammatory markers, including nitric oxide (NO, Figure 6B) and cytokines, TNF-α and IL-6 (Figure 6C,D).
The cells were pretreated with tested compounds for 1 h. […]
The NO level in the culture supernatants was measured using 2,3-diaminonaphthalene (DAN) reagent according to the method of Nussler et al.[88] After 15 min of incubation at room temperature, the fluorescence intensity (EX 360; EM 440 nm) was measured using a microplate reader POLARstar Omega, (BMG Labtech). The values of nitric oxide were calculated as a percentage of control (maximal response of LPS).

In general, IC50 refers to the concentration that inhibits the measured activity by half. Read a high IC50 as lower potency. As to `O=C(Nc1cc(-c2ccc(-c3ncon3)nc2)ccn1)C1CC1` [Compound 34, N-(6-(1,2,4-Oxadiazol-3-yl)-[3,4′-bipyridin]-2′-yl)cyclopropanecarboxamide], the IC50 at 24 h was 39.2 ± 5.2 µM in data set [1] and above 100 µM in data set [2]. For the same compound, the “cell viability in HT-22 cells” value in the data set on HT-22 cells is listed as “No significant decrease in cell viability”. The compound further displayed an IC50 at GSK-3β of 0.185 ± 0.003 µM. Besides, in the data set with BV-2 cell line, the “impact on NO release” value is given as “did not show any impact”.
